Experimental data taken from publication PMC5029699, “Landscape of activating cancer mutations in FGFR kinases and their differential responses to inhibitors in clinical use” (Oncotarget, 2016).

Key:
[1] = tested on: cell line with introduced FGFR3 V555M mutation; design: method as in PMID 26097890; conditions: cell line originally responding to both drugs; cited from earlier work
[2] = tested on: JHUEM-2 cancer cell line, FGFR2 mutation corresponding to N540K; design: method as in PMID 23908597; conditions: cited from earlier work
[3] = tested on: cancer cell lines with the FGFR3 S249C substitution; conditions: some cancer cell lines with FGFR3 S249C; cited from earlier work
[4] = tested on: NIH3T3 cells expressing FGFR3 N540K; conditions: N540K NIH3T3 cells vs FGFR3TACC3-fusion cells, in words
Experimental: (§1) For the cell viability assay in the presence of FGFR inhibitors, NIH3T3 cells transfected with the stated FGFR3 variants were plated in 96-well plates, 1000 cells per well. Twenty-four hours later the cells were treated with various concentrations of kinase inhibitor. Forty-eight hours later, fresh inhibitor was added and the cells incubated for 72 hours. Cell viability was measured through the addition of CellTiter-Glo (Promega) and luminenscence measured with a standard luminometer plate reader. Data were normalised and fitted to a log(inhibitor) vs. response curve (three parameters) with GraphPad Prism.

[5] = tested on: NIH3T3 cells expressing FGFR3 K650E; conditions: K650E NIH3T3 cells vs FGFR3TACC3-fusion cells, in words
Experimental: as §1

[6] = tested on: NIH3T3 cells expressing FGFR3TACC3-fusion (WT KD); conditions: AZD4547 compared with JNJ42756493
Experimental: as §1

| Compound | drug effect following introduction of FGFR3 V555M mutation [1] | drug response due to mutation corresponding to N540K in FGFR2 [2] | viability and proliferation of cancer cell lines [3] | effect of variant on inhibitor efficacy in cells [4] | effect of variant on inhibitor efficacy in cells [5] | difference between AZD4547 and JNJ42756493 cellular IC50s [6] |
| --- | --- | --- | --- | --- | --- | --- |
| CCN(CC)CCCCNc1ncc2cc(-c3cc(OC)cc(OC)c3)c(NC(=O)NC(C)(C)C)nc2n1 [PD173074] | loss of efficacy | reduced sensitivity |  |  |  |  |
| AZD4547 |  |  | compromised | reduce efficacy | reduce efficacy | 2-3 fold |
